Experimental data from patent US8808746B2, “Sustained-release microspheres and methods of making and using same” (Fresenius Kabi USA, LLC, priority 2004, dated 2014).

Assay: pH versus accelerated stability of octreotide acetate solutions (HPLC)
Assay type: physicochemical
Conditions: 70° C.
Method: For this study, 0.2 mg/mL octreotide acetate solutions in different pH buffers (buffer ionic strength=˜50 mM) were incubated at 70° C. At various designated times, the concentration of octreotide was determined using HPLC. The degradation rate versus time (Kobs) was calculated and plotted.

[1] = pH 4.0, Arginine-Acetate, 0 hours
[2] = pH 4.0, Arginine-Acetate, 24 hours
[3] = pH 4.0, Arginine-Acetate, 48 hours
[4] = pH 4.0, Arginine-Acetate, 69 hours
[5] = pH 5.0, Arginine-Acetate, 0 hours
[6] = pH 5.0, Arginine-Acetate, 24 hours
[7] = pH 5.0, Arginine-Acetate, 48 hours
[8] = pH 5.0, Arginine-Acetate, 69 hours

Q: Which stability in solution (between a pH of 3.0 and 5.0) does the source give for `C[C@@H](O)[C@@H]1NC(=O)[C@H](CCCCN)NC(=O)[C@@H](Cc2c[nH]c3ccccc23)NC(=O)[C@H](Cc2ccccc2)NC(=O)[C@@H](NC(=O)[C@H](N)Cc2ccccc2)CSSC[C@@H](C(=O)N[C@H](CO)[C@@H](C)O)NC1=O` [Octreotide, octreotide acetate] here?
A: relatively stable

Q: And the “Octreotide Assay” value (pH 2.0, Glycine-HCl, 0 hours)?
A: 0.1965 mg/mL

Q: What about the “Octreotide Assay (% Stability)” value (pH 2.0, Glycine-HCl, 0 hours) of the same molecule?
A: (100.00) %

Q: And the “Octreotide Assay” value (pH 2.0, Glycine-HCl, 24 hours)?
A: 0.1651 mg/mL

Q: What about the “Octreotide Assay (% Stability)” value (pH 2.0, Glycine-HCl, 24 hours) of the same molecule?
A: (84.02) %

Q: And the “Octreotide Assay” value (pH 2.0, Glycine-HCl, 48 hours)?
A: 0.1425 mg/mL

Q: And the “Octreotide Assay (% Stability)” value (pH 2.0, Glycine-HCl, 48 hours)?
A: (72.52) %

Q: And the “Octreotide Assay” value (pH 2.0, Glycine-HCl, 69 hours)?
A: 0.1303 mg/mL

Q: What about the “Octreotide Assay (% Stability)” value (pH 2.0, Glycine-HCl, 69 hours) of the same molecule?
A: (66.31) %

Q: And the “Octreotide Assay” value (pH 3.0, Glycine-HCl, 0 hours)?
A: 0.2214 mg/mL

Q: What about the “Octreotide Assay (% Stability)” value (pH 3.0, Glycine-HCl, 0 hours) of the same molecule?
A: (100.00) %

Q: And the “Octreotide Assay” value (pH 3.0, Glycine-HCl, 24 hours)?
A: 0.2136 mg/mL

Q: And the “Octreotide Assay (% Stability)” value (pH 3.0, Glycine-HCl, 24 hours)?
A: (96.48) %

Q: What about the “Octreotide Assay” value (pH 3.0, Glycine-HCl, 48 hours) of the same molecule?
A: 0.2050 mg/mL

Q: What about the “Octreotide Assay (% Stability)” value (pH 3.0, Glycine-HCl, 48 hours) of the same molecule?
A: (92.59) %

Q: And the “Octreotide Assay” value (pH 3.0, Glycine-HCl, 69 hours)?
A: 0.2004 mg/mL

Q: What about the “Octreotide Assay (% Stability)” value (pH 3.0, Glycine-HCl, 69 hours) of the same molecule?
A: (90.51) %

Q: What about the “Octreotide Assay” value [1] of the same molecule?
A: 0.1911 mg/mL

Q: What about the “Octreotide Assay (% Stability)” value [1] of the same molecule?
A: (100.00) %

Q: And the “Octreotide Assay” value [2]?
A: 0.1860 mg/mL

Q: And the “Octreotide Assay (% Stability)” value [2]?
A: (97.33) %

Q: What about the “Octreotide Assay” value [3] of the same molecule?
A: 0.1784 mg/mL

Q: And the “Octreotide Assay (% Stability)” value [3]?
A: (93.35) %

Q: What about the “Octreotide Assay” value [4] of the same molecule?
A: 0.1741 mg/mL

Q: And the “Octreotide Assay (% Stability)” value [4]?
A: (91.10) %

Q: What about the “Octreotide Assay” value [5] of the same molecule?
A: 0.2027 mg/mL

Q: And the “Octreotide Assay (% Stability)” value [5]?
A: (100.00) %

Q: What about the “Octreotide Assay” value [6] of the same molecule?
A: 0.1975 mg/mL

Q: What about the “Octreotide Assay (% Stability)” value [6] of the same molecule?
A: (97.43) %

Q: What about the “Octreotide Assay” value [7] of the same molecule?
A: 0.1848 mg/mL

Q: What about the “Octreotide Assay (% Stability)” value [7] of the same molecule?
A: (91.17) %

Q: What about the “Octreotide Assay” value [8] of the same molecule?
A: 0.1819 mg/mL

Q: What about the “Octreotide Assay (% Stability)” value [8] of the same molecule?
A: (89.74) %

Q: What about the “Octreotide Assay” value (pH 6.0, Phosphate, 0 hours) of the same molecule?
A: 0.1934 mg/mL

Q: What about the “Octreotide Assay (% Stability)” value (pH 6.0, Phosphate, 0 hours) of the same molecule?
A: (100.00) %

Q: What about the “Octreotide Assay” value (pH 6.0, Phosphate, 24 hours) of the same molecule?
A: 0.1738 mg/mL

Q: And the “Octreotide Assay (% Stability)” value (pH 6.0, Phosphate, 24 hours)?
A: (89.87) %

Q: What about the “Octreotide Assay” value (pH 6.0, Phosphate, 48 hours) of the same molecule?
A: 0.1434 mg/mL

Q: What about the “Octreotide Assay (% Stability)” value (pH 6.0, Phosphate, 48 hours) of the same molecule?
A: (74.15) %

Q: And the “Octreotide Assay” value (pH 6.0, Phosphate, 69 hours)?
A: 0.1276 mg/mL

Q: What about the “Octreotide Assay (% Stability)” value (pH 6.0, Phosphate, 69 hours) of the same molecule?
A: (65.98) %

Q: And the “Octreotide Assay” value (pH 7.0, Phosphate, 0 hours)?
A: 0.2047 mg/mL

Q: And the “Octreotide Assay (% Stability)” value (pH 7.0, Phosphate, 0 hours)?
A: (100.00) %

Q: And the “Octreotide Assay” value (pH 7.0, Phosphate, 24 hours)?
A: 0.1638 mg/mL

Q: And the “Octreotide Assay (% Stability)” value (pH 7.0, Phosphate, 24 hours)?
A: (80.02) %

Q: And the “Octreotide Assay” value (pH 7.0, Phosphate, 48 hours)?
A: 0.1247 mg/mL

Q: And the “Octreotide Assay (% Stability)” value (pH 7.0, Phosphate, 48 hours)?
A: (60.92) %

Q: What about the “Octreotide Assay” value (pH 7.0, Phosphate, 69 hours) of the same molecule?
A: 0.1056 mg/mL

Q: And the “Octreotide Assay (% Stability)” value (pH 7.0, Phosphate, 69 hours)?
A: (51.59) %

Q: And the “Octreotide Assay” value (pH 8.0, Phosphate, 0 hours)?
A: 0.1906 mg/mL

Q: What about the “Octreotide Assay (% Stability)” value (pH 8.0, Phosphate, 0 hours) of the same molecule?
A: (100.00) %

Q: What about the “Octreotide Assay” value (pH 8.0, Phosphate, 24 hours) of the same molecule?
A: 0.0793 mg/mL

Q: What about the “Octreotide Assay (% Stability)” value (pH 8.0, Phosphate, 24 hours) of the same molecule?
A: (41.61) %

Q: And the “Octreotide Assay” value (pH 8.0, Phosphate, 48 hours)?
A: 0.0369 mg/mL

Q: And the “Octreotide Assay (% Stability)” value (pH 8.0, Phosphate, 48 hours)?
A: (19.36) %

Q: What about the “Octreotide Assay” value (pH 8.0, Phosphate, 69 hours) of the same molecule?
A: 0.0280 mg/mL

Q: And the “Octreotide Assay (% Stability)” value (pH 8.0, Phosphate, 69 hours)?
A: (14.69) %
